Assay results reported in patent US20120010206A1, “IMIDAZOLOPYRIDINE COMPOUNDS USEFUL FOR THE TREATMENT OF DEGENERATIVE AND INFLAMMATORY DISEASES” (priority 2006, published 2012).

Experiments:
TAK1-TAB1 fusion protein = target: T1, TAK1-TAB1 fusion protein (Homo sapiens, UniProt O43318); test: In vitro TAK1 kinase assay (33P-ATP, casein substrate); type: biochemical; conditions: semi-quantitative score, at least two independent experiments
T1 construct: purchased Upstate 14-600
T1 sequence (O43318 with tags, fused parts or gaps limits assumed): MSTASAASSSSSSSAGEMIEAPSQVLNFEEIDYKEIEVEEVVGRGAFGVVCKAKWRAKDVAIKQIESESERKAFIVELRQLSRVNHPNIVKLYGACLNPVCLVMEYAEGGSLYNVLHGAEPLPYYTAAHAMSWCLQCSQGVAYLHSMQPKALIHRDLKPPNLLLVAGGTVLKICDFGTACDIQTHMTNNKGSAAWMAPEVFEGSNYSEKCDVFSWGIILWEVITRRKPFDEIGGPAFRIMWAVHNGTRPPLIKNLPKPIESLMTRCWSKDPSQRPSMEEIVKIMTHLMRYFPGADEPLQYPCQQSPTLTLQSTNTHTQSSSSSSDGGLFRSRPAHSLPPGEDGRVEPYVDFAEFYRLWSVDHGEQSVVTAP
Protocol: For assessing TAK1 inhibition, active TAK1-TAB1 fusion protein was used from Upstate (Cat. No, 14-600). Kinase reactions are set up in 96-well polypropylene plates in 25 μL containing 0.5 mU TAK1-TAB1 fusion protein, […], 0.01 μCi/μL [^33P]-γ-ATP, 0.1 mg/mL casein substrate in 1× reaction buffer containing 10 mM MOPS pH 7.0, 1 mM EDTA.
Starting from the compound master stocks (all at 10 mM concentration in 100% DMSO) a 3-fold serial dilution is made in 96-well plates in 100% DMSO. Plates are further diluted […] in H2O containing 3.5% DMSO, to obtain an intermediate work stock with compounds at 5× the final assay concentration in 5% DMSO.
5 μL of the intermediate stock is transferred into V-bottom 96 well polypropylene plates and 11 μL of Enzyme mix is added. Enzyme mix is made by combining 5 μL 5× reaction buffer ([…] pH 7.0, 1 mM EDTA), 5 μL casein (Sigma) diluted in H2O to 0.5 mg/mL and 1 μL of TAK1-TAB1 fusion protein that was prediluted to 0.5 mU/μL in 1× enzyme dilution buffer (20 mM MOPS pH 7.0, 0.1 mM EDTA, 0.01% Brij-35, 5% glycerol, 1 mM DTT, 1 mg/ml BSA).
The reactions are started by the addition of 9 μL of mixture containing ATP (20.83 uM) and [^33P]-γ-ATP (0.028 μCi/μL).
The assay is stopped 90 minutes after incubation at 30° C. by the addition of 25 μL phosphoric acid (150 mM). The label incorporated into the casein substrate is separated from labeled unincorporated ATP by filtration onto 96-well filter plates using a harvester device. After 6 washes with 75 mM phosphoric acid, the bottom of the filter plates are sealed, and incorporated label is quantified after addition of 40 μL scintillation fluid using TopCount.
Based on these percent inhibition data obtained in at least two independent experiments for the compounds, compounds are ranked using semi-quantitative scores. Table A below lists a number of compounds which have been or can be prepared according to the synthetic methods described herein. Semi-quantitative score: • *>3001 nM • ** 1001-3000 nM • *** 101-1000 nM • ****<100 nM

[1] = system: MMP1 expression from activated SFs (RASF); test: MMP assay: MMP1 expression (ELISA) by TNF-α-triggered RASFs; type: cell-based; conditions: RASF triggered with TNFα, MMP1 ELISA after 48 hrs, semi-quantitative score
Protocol: A 384-well format ELISA for measurement of MMP1 is developed. Various primary antibodies are tested, as well as various ELISA protocols. The following protocol is developed and validated to measure MMP1 levels in SF supernatant in 384 well plates: white Lumitrac 600 384 well plates (Greiner) are coated with 2 μg/mL anti-MMP1 antibody MAB1346 (Chemicon). The antibody is diluted in buffer 40 (1.21 g Tris base (Sigma), 0.58 g NaCl (Calbiochem) and 5 mL 10% NaN3 (Sigma) in 1 L milliQ water and adjusted to pH 8.5). After overnight incubation at 4° C., plates are washed with PBS (80 g NaCl, 2 g KCl (Sigma), 11.5 g Na2HPO4.7H2O and 2 g KH2PO4 in 10 L milliQ; pH 7.4) and blocked with 100 μL/well Casein buffer (2% Casein (VWR International) in PBS). Next day, casein buffer is removed from ELISA plates and replaced by 50 μL/well EC buffer (4 g casein, 2.13 g Na2HPO4 (Sigma), 2 g bovine albumin (Sigma), 0.69 g NaH2PO4.H2O (Sigma), 0.5 g CHAPS (Roche), 23.3 g NaCl, 4 mL 0.5 M EDTA pH 8 (Invitrogen), 5 mL 10% NaN3 in 1 L milliQ and adjusted to pH 7.0). 0.25 mM DTT (Sigma) is added to the thawed sample plates. After removal of the EC buffer, 20 μL of sample is transferred to the ELISA plates. After overnight incubation at 4° C. plates are washed twice with PBS and once with PBST (PBS with 0.05% Tween-20 (Sigma)) and incubated with 35 μL/well biotinylated anti-MMP1 antibody solution (R&D). This secondary antibody is diluted in buffer C (0.82 g NaH2PO4.H2O, 4.82 g Na2HPO4, 46.6 g NaCl, 20 g bovine albumin and 4 ml, 0.5M EDTA pH 8 in 2 L milliQ and adjusted to pH 7.0) at a concentration of 5 μg/mL. After 2 h of incubation at RT, plates are washed as described above and incubated with 50 μL/well streptavidin-HRP conjugate (Biosource). Streptavidin-HRP conjugate is diluted in buffer C at a concentration of 0.25 μg/mL. After 45 min, plates are washed as described above and incubated for 5 min with 50 μL/well BM Chem ELISA Substrate (Roche). Readout is performed on the Luminoscan Ascent Luminometer (Labsystems) with an integration time of 200 msec or with an Envision reader (Perkin Elmer).
SFs were acquired at passage 1 from a commercial supplier (Cell applications, Inc.). SFs are cultured in DMEM supplemented with 10% heat-inactivated FBS, 1× penicillin/streptomycin (Invitrogen) at 37° C., 10% CO2 until passage 6. Aliquots of the cells are frozen and cryopreserved in liquid nitrogen. Starting from a cryopreserved aliquot, cells are further expanded by sub-culturing cells at 1/3 ratio every week. Cells between passage 10 and 12 are routinely used in compound testing according to the following protocol.
Starting from the compound master stocks (all at 10 mM concentration in 100% DMSO) a 3-fold serial dilution is made in 96-well plates in 100% DMSO. Then, plates are further diluted 45-fold in M199 medium supplemented with 1% heat-inactivated FBS to obtain a intermediate work stock.
At day 1, RASFs are seeded in 96 well plates (flat bottom, tissue culture treated, Greiner) at a density of 3000 cells/well in complete synovial growth medium (Cell Applications). Day 5, the medium is completely removed from the cells, and replaced by 81 μL of M199 medium supplemented with 1% heat-inactivated FBS followed by addition of 10 μL compound out of the intermediate work stock. After an incubation period of 90 minutes, which allows the compounds to equilibrate and enter the cells, cells are stimulated with either TNF-α or ‘complex trigger’. TNF-α trigger is added in a volume of […] to obtain final concentration of 10 ng/mL. For that, TNF-α stock (PeproTech) at 10 μg/mL was diluted to 100 ng/mL TNF-α in M199 medium supplemented with 1% FBS. ‘Complex trigger’ mix is added in a volume of 20 μL to obtain a final concentration of 12.5%. For that, ‘complex trigger’ mix, is diluted to 80% with M199 medium supplemented with 1% FBS. […]

IC50 (TAK1-TAB1 fusion protein) | EC50 [1] | Structure (SMILES)
1 to 3 µM | 0.101 to 1 µM | NC(=O)c1ccc(-c2ccc(Nc3ccc(N4CCOCC4)cc3)c3nccn23)cc1 [Compound 1, 4-[8-(4-Morpholin-4-yl-phenylamino)-imidazo[1,2-a]pyridin-5-yl]-benzamide]
0.101 to 1 µM | 0.101 to 1 µM | c1cn2c(-c3cn[nH]c3)ccc(Nc3ccc(N4CCOCC4)cc3)c2n1 [Compound 2, (4-Morpholin-4-yl-phenyl)-[5-(1H-pyrazol-4-yl)-imidazo[1,2-a]pyridin-8-yl]-amine]
0.101 to 1 µM | < 0.1 µM | CN1CCN(c2ccc(Nc3ccc(-c4ccc(C(N)=O)cc4)n4ccnc34)cc2)CC1 [Compound 3, 4-{8-[4-(4-Methyl-piperazin-1-yl)-phenylamino]-imidazo[1,2-a]pyridin-5-yl}-benzamide]
0.101 to 1 µM | > 3 µM | CN1CCN(c2ccc(Nc3ccc(-c4cn[nH]c4)n4ccnc34)cc2)CC1 [Compound 4, [4-(4-Methyl-piperazin-1-yl)-phenyl]-[5-(1H-pyrazol-4-yl)-imidazo[1,2-a]pyridin-8-yl]-amine]
0.101 to 1 µM | 1 to 3 µM | CC(C)N1CCN(c2ccc(Nc3ccc(-c4cn[nH]c4)n4ccnc34)cc2F)CC1 [Compound 5, [3-Fluoro-4-(4-isopropyl-piperazin-1-yl)-phenyl]-[5-(1H-pyrazol-4-yl)-imidazo[1,2-a]pyridin-8-yl]-amine]
0.101 to 1 µM | 0.101 to 1 µM | CC(C)N1CCN(c2ccc(Nc3ccc(-c4cn[nH]c4)n4ccnc34)cc2)CC1 [Compound 6, [4-(4-Isopropyl-piperazin-1-yl)-phenyl]-[5-(1H-pyrazol-4-yl)-imidazo[1,2-a]pyridin-8-yl]-amine]
0.101 to 1 µM | 0.101 to 1 µM | CN1CCN(c2ccc(Nc3ccc(-c4cn[nH]c4)n4ccnc34)c(F)c2)CC1 [Compound 7, [2-Fluoro-4-(4-methyl-piperazin-1-yl)-phenyl]-[5-(1H-pyrazol-4-yl)-imidazo[1,2-a]pyridin-8-yl]amine]
0.101 to 1 µM | 0.101 to 1 µM | CC(C)N1CCN(c2ccc(Nc3ccc(-c4csc(C(N)=O)c4)n4ccnc34)cc2)CC1 [Compound 8, 4-{8-[4-(4-Isopropyl-piperazin-1-yl)-phenylamino]-imidazo[1,2-a]pyridin-5-yl}-thiophene-2-carboxylic acid amide]
1 to 3 µM | 1 to 3 µM | CC(C)N1CCN(c2ccc(Nc3ccc(-c4csc(C(N)=O)c4)n4ccnc34)cc2F)CC1 [Compound 9, 4-{8-[3-Fluoro-4-(4-isopropyl-piperazin-1-yl)-phenylamino]-imidazo[1,2-a]pyridin-5-yl}-thiophene-2-carboxylic acid amide]
0.101 to 1 µM | 0.101 to 1 µM | CC(C)N1CCN(c2ccc(Nc3ccc(-c4ccc(C(N)=O)cc4)n4ccnc34)cc2)CC1 [Compound 10, 4-{8-[4-(4-Isopropyl-piperazin-1-yl)-phenylamino]-imidazo[1,2-a]pyridin-5-yl}-benzamide]
0.101 to 1 µM | > 3 µM | CC(C)N1CCN(c2ccc(Nc3ccc(-c4ccc(C(N)=O)cc4)n4ccnc34)cc2F)CC1 [Compound 11, 4-{8-[3-Fluoro-4-(4-isopropyl-piperazin-1-yl)-phenylamino]-imidazo[1,2-a]pyridin-5-yl}-benzamide]
< 0.1 µM | 0.101 to 1 µM | CC(C)N1CCN(c2ccc(Nc3ccc(-c4ccc5c(c4)CNC5=O)n4ccnc34)cc2)CC1 [Compound 12, 5-{8-[4-(4-Isopropyl-piperazin-1-yl)-phenylamino]-imidazo[1,2-a]pyridin-5-yl}-2,3-dihydro-isoindol-1-one]
0.101 to 1 µM | 1 to 3 µM | O=C1NCc2cc(-c3ccc(Nc4ccc(N5CCOCC5)cc4)c4nccn34)ccc21 [Compound 13, 5-(8-(4-morpholinophenyl-amino)imidazo [1,2-a]pyridin-5-yl)isoindolin-1-one]
0.101 to 1 µM | > 3 µM | CN(C)C(=O)c1ccc(Nc2ccc(-c3ccc4c(c3)CNC4=O)n3ccnc23)cc1 [Compound 14, N,N-dimethyl-4-(5-(1-oxoisoindolin-5-yl)imidazo[1,2-a]pyridin-8-ylamino)benzamide]
0.101 to 1 µM | > 3 µM | O=C1NCc2cc(-c3ccc(Nc4ccc(C(=O)N5CCOCC5)cc4)c4nccn34)ccc21 [Compound 15, 5-(8-(4-(morpholine-4-carbonyl)phenyl-amino)imidazo[1,2-a]pyridin-5-yl)isoindolin-1-one]
0.101 to 1 µM | > 3 µM | O=C1NCc2cc(-c3ccc(Nc4ccc(S(=O)(=O)N5CCOCC5)cc4)c4nccn34)ccc21 [Compound 16, 5-(8-(4-(morpholinosulfonyl)phenylamino)imidazo[1,2-a]pyridin-5-yl)isoindolin-1-one]
1 to 3 µM | > 3 µM | O=C(Nc1ccccc1)c1ccc(Nc2ccc(-c3ccc4c(c3)CNC4=O)n3ccnc23)cc1 [Compound 17, 4-(5-(1-oxoisoindolin-5-yl)imidazo[1,2-a]pyridin-8-ylamino)-N-phenylbenzamide]
